Results published in ChEMBL document CHEMBL3885881, “DrugMatrix”.

Organism: Rattus norvegicus
Type: toxicity, organism-based, Sprague-Dawley
Details: in vivo, po, route oral GAVAGE, vehicle 100 % SALINE; for ABSOLUTE EOSINOPHIL / ABSOLUTE LYMPHOCYTE / ABSOLUTE MONOCYTE / ABSOLUTE SEGMENTED NEUTROPHIL / BASOPHIL / EOSINOPHIL / ERYTHROCYTE COUNT / HEMATOCRIT / HEMOGLOBIN / LEUKOCYTE COUNT / LYMPHOCYTE / MEAN CORPUSCULAR HEMOGLOBIN / MEAN CORPUSCULAR HEMOGLOBIN CONCENTRATION / MEAN CORPUSCULAR VOLUME / MONOCYTE / NEUTROPHIL / NUCLEATED RED BLOOD CELLS / PLATELET COUNT: tissue Blood; for ALANINE AMINOTRANSFERASE / ALBUMIN / ALKALINE PHOSPHATASE / ASPARTATE AMINOTRANSFERASE / BLOOD UREA NITROGEN / CARBON DIOXIDE / CHLORIDE / CHOLESTEROL / CREATINE PHOSPHOKINASE / CREATININE / GLUCOSE / LACTATE DEHYDROGENASE / LIPASE / PHOSPHORUS / POTASSIUM / SODIUM / TOTAL BILIRUBIN / TOTAL PROTEIN / URIC ACID: tissue Plasma
[1] = 10 mg/kg, 24 h, dose level Low, time 1 day
[2] = 30 mg/kg, 6 h, dose level High, time 0.25 day
[3] = 30 mg/kg, 24 h, dose level High, time 1 day

Description: DrugMatrix - Regimen: Single

O=[As][O-].[Na+] [SODIUM ARSENITE]
ABSOLUTE EOSINOPHIL [1]: 15.17 CELLS/uL | ABSOLUTE LYMPHOCYTE [1]: 9656.17 CELLS/uL | ABSOLUTE MONOCYTE [1]: 190.33 CELLS/uL | ABSOLUTE SEGMENTED NEUTROPHIL [1]: 505 CELLS/uL | BASOPHIL [1]: 0% | EOSINOPHIL [1]: 0.17% | ERYTHROCYTE COUNT [1]: 4.96 x10E6/uL | HEMATOCRIT [1]: 32.55% | HEMOGLOBIN [1]: 12.85 G/DL | LEUKOCYTE COUNT [1]: 10.37 x10E3/uL | LYMPHOCYTE [1]: 93% | MEAN CORPUSCULAR HEMOGLOBIN [1]: 25.92 pg | MEAN CORPUSCULAR HEMOGLOBIN CONCENTRATION [1]: 39.47 G/DL | MEAN CORPUSCULAR VOLUME [1]: 65.67 fL | MONOCYTE [1]: 1.83% | NEUTROPHIL [1]: 5% | NUCLEATED RED BLOOD CELLS [1]: 0 /100WBC | PLATELET COUNT [1]: 1030.17 x10E3/uL | ALANINE AMINOTRANSFERASE [1]: 32.83 u/L | ALBUMIN [1]: 4.12 G/DL | ALKALINE PHOSPHATASE [1]: 249.5 u/L | ASPARTATE AMINOTRANSFERASE [1]: 61.17 u/L | BLOOD UREA NITROGEN [1]: 11 mg/dL | CARBON DIOXIDE [1]: 31.17 mmol/L | CHLORIDE [1]: 98.33 MEQ/L | CHOLESTEROL [1]: 81.67 mg/dL | CREATINE PHOSPHOKINASE [1]: 185.5 u/L | CREATININE [1]: 0.18 mg/dL | GLUCOSE [1]: 153.5 mg/dL | LACTATE DEHYDROGENASE [1]: 58.67 u/L | LIPASE [1]: 9.83 u/L | PHOSPHORUS [1]: 10.27 mg/dL | POTASSIUM [1]: 5.57 MEQ/L | SODIUM [1]: 143.25 MEQ/L | TOTAL BILIRUBIN [1]: 0.13 mg/dL | TOTAL PROTEIN [1]: 5.97 G/DL | URIC ACID [1]: 0.45 mg/dL | ABSOLUTE EOSINOPHIL [2]: 50 CELLS/uL | ABSOLUTE LYMPHOCYTE [2]: 13297 CELLS/uL | ABSOLUTE MONOCYTE [2]: 256.33 CELLS/uL | ABSOLUTE SEGMENTED NEUTROPHIL [2]: 2130 CELLS/uL | BASOPHIL [2]: 0% | EOSINOPHIL [2]: 0.33% | ERYTHROCYTE COUNT [2]: 5.91 x10E6/uL | HEMATOCRIT [2]: 39.97% | HEMOGLOBIN [2]: 14.47 G/DL | LEUKOCYTE COUNT [2]: 15.73 x10E3/uL | LYMPHOCYTE [2]: 84.67% | MEAN CORPUSCULAR HEMOGLOBIN [2]: 24.55 pg | MEAN CORPUSCULAR HEMOGLOBIN CONCENTRATION [2]: 36.2 G/DL | MEAN CORPUSCULAR VOLUME [2]: 67.78 fL | MONOCYTE [2]: 1.67% | NEUTROPHIL [2]: 13.33% | NUCLEATED RED BLOOD CELLS [2]: 0 /100WBC | PLATELET COUNT [2]: 1100.5 x10E3/uL | ALANINE AMINOTRANSFERASE [2]: 96.5 u/L | ALBUMIN [2]: 4.35 G/DL | ALKALINE PHOSPHATASE [2]: 225.33 u/L | ASPARTATE AMINOTRANSFERASE [2]: 192.17 u/L | BLOOD UREA NITROGEN [2]: 19.33 mg/dL | CARBON DIOXIDE [2]: 17.5 mmol/L | CHLORIDE [2]: 99.67 MEQ/L | CHOLESTEROL [2]: 64.33 mg/dL | CREATINE PHOSPHOKINASE [2]: 1132 u/L | CREATININE [2]: 0.23 mg/dL | GLUCOSE [2]: 205 mg/dL | LACTATE DEHYDROGENASE [2]: 746.17 u/L | LIPASE [2]: 8.17 u/L | PHOSPHORUS [2]: 16.53 mg/dL | POTASSIUM [2]: 6.95 MEQ/L | SODIUM [2]: 140.37 MEQ/L | TOTAL BILIRUBIN [2]: 0.2 mg/dL | TOTAL PROTEIN [2]: 5.83 G/DL | URIC ACID [2]: 4.12 mg/dL | ABSOLUTE EOSINOPHIL [3]: 0 CELLS/uL | ABSOLUTE LYMPHOCYTE [3]: 12176.83 CELLS/uL | ABSOLUTE MONOCYTE [3]: 320 CELLS/uL | ABSOLUTE SEGMENTED NEUTROPHIL [3]: 353.17 CELLS/uL | BASOPHIL [3]: 0% | EOSINOPHIL [3]: 0% | ERYTHROCYTE COUNT [3]: 5.64 x10E6/uL | HEMATOCRIT [3]: 36.4% | HEMOGLOBIN [3]: 14.38 G/DL | LEUKOCYTE COUNT [3]: 12.85 x10E3/uL | LYMPHOCYTE [3]: 94.83% | MEAN CORPUSCULAR HEMOGLOBIN [3]: 25.55 pg | MEAN CORPUSCULAR HEMOGLOBIN CONCENTRATION [3]: 39.53 G/DL | MEAN CORPUSCULAR VOLUME [3]: 64.63 fL | MONOCYTE [3]: 2.33% | NEUTROPHIL [3]: 2.83% | NUCLEATED RED BLOOD CELLS [3]: 0.17 /100WBC | PLATELET COUNT [3]: 1165.33 x10E3/uL | ALANINE AMINOTRANSFERASE [3]: 12.67 u/L | ALBUMIN [3]: 3.88 G/DL | ALKALINE PHOSPHATASE [3]: 235.5 u/L | ASPARTATE AMINOTRANSFERASE [3]: 43.83 u/L | BLOOD UREA NITROGEN [3]: 14.83 mg/dL | CARBON DIOXIDE [3]: 30.67 mmol/L | CHLORIDE [3]: 99.5 MEQ/L | CHOLESTEROL [3]: 62.17 mg/dL | CREATINE PHOSPHOKINASE [3]: 219.17 u/L | CREATININE [3]: 0.2 mg/dL | GLUCOSE [3]: 139.5 mg/dL | LACTATE DEHYDROGENASE [3]: 82 u/L | LIPASE [3]: 9 u/L | PHOSPHORUS [3]: 10.38 mg/dL | POTASSIUM [3]: 5.78 MEQ/L | SODIUM [3]: 143.5 MEQ/L | TOTAL BILIRUBIN [3]: 0.12 mg/dL | TOTAL PROTEIN [3]: 5.75 G/DL | URIC ACID [3]: 0.75 mg/dL
